The test system of one assay is Candida albicans. Nature of the assay: Antifungal activity against Candida albicans. Format: functional.
Another assay deals with HeLa. The experiment in a line: Cytotoxicity against human HeLa cells. Format: functional, cell-based.
The next assay has as its system HFL1. Nature of the assay: Cytotoxicity against human HFL1 cells. Format: cell-based.
A further assay concerns Acanthamoeba lugdunensis. Nature of the assay: Antiprotozoal activity against Acanthamoeba lugdunensis. The class given is functional.

Converted amounts (≈) assume the structure as drawn.

For the compound `CCCCCCCCCCCCOP(=O)([O-])OCC[N+](C)(C)CCCCCCCCCC`, the MFC in the assay on Candida albicans stood at 9.7 µM (≈ 4.63 µg/mL). The IC50 in the assay on HeLa turned out to be 131 µM; in the assay with HFL1, 58.8 µM. For the same compound, in the assay with Acanthamoeba lugdunensis, the MTC was >400 µM.

In the assay on Candida albicans, `CCCCCCCCCCCCCCOP(=O)([O-])OCC[N+](C)(C)CCCCCCCC` registered an MFC of 19.3 µM (≈ 9.22 µg/mL). Also, the MTC in the assay on Acanthamoeba lugdunensis was >400 µM.

In the case of `CCCCCCCCCCCC[N+](C)(C)CCCCCCOP(=O)([O-])OCCCCCCCCCC`, the MFC with Candida albicans was 34.8 µM (≈ 18.6 µg/mL). The MTC in the assay on Acanthamoeba lugdunensis was >400 µM.

As to `CCCCCCCCCCCC[N+](C)(C)CCCCOP(=O)([O-])OCCCCCCCCCC`, the MFC in the assay on Candida albicans worked out at 18.6 µM (≈ 9.41 µg/mL). Moreover, the IC50 in the assay on HeLa stood at 148 µM; with HFL1 it was 94.6 µM. In addition, the MTC in the assay on Acanthamoeba lugdunensis stood at 200 µM.

For `CCCCCCCCCCOP(=O)([O-])OCC[N+](C)(C)CCCCCCCCCC`, in the assay with Candida albicans, the MFC is 20.5 µM (≈ 9.22 µg/mL). This compound came in with an MTC in the assay on Acanthamoeba lugdunensis of 25 µM.

In turn, `CCCCCCCCCCCCCCCCCCCC[N+](C)(C)CCOP(=O)([O-])OCC` showed an MFC against Candida albicans of 1240 µM (≈ 592 µg/mL). Besides, the MTC in the assay on Acanthamoeba lugdunensis was >400 µM.

In the assay with Candida albicans, `CCCCCCCCCCCCCC[N+](C)(C)CCOP(=O)([O-])OCCCCCCCC` gave an MFC of 9.7 µM (≈ 4.63 µg/mL). Further, the MTC in the assay with Acanthamoeba lugdunensis was >400 µM.

Take `CCCCCCCCCCCC[N+](C)(C)CCCOP(=O)([O-])OCCCCCCCCCC`: the MFC against Candida albicans is 9.4 µM (≈ 4.62 µg/mL). In addition, the IC50 in the assay with HeLa is 112 µM; in the assay with HFL1 it was 57.7 µM. The compound further gave an MTC with Acanthamoeba lugdunensis of 100 µM.

Compound `CCCCCCCCCCCCCCCC[N+](C)(C)CCOP(=O)([O-])OCCCCCC` displayed an MFC against Candida albicans of 19.3 µM (≈ 9.22 µg/mL). Also, the IC50 was found to be 170 µM with HeLa and 110 µM in the assay on HFL1. Moreover, in the assay with Acanthamoeba lugdunensis, the MTC was >400 µM.

`CCCCCCCCCCCCCCCCCCCCOP(=O)([O-])OCC[N+](C)(C)CC` yielded a minimum fungicidal concentration (MFC) against Candida albicans of 619 µM (≈ 296 µg/mL). Moreover, the IC50 was 20.3 µM with HeLa and 27.2 µM with HFL1. The MTC with Acanthamoeba lugdunensis was >400 µM.

In turn, `CCCCCCCCCC[N+](C)(C)CC[N+](C)(C)CCCCCCCCCC.[Br-].[Br-]` displayed an MFC in the assay with Candida albicans of 17.5 µM. Also, the MTC in the assay with Acanthamoeba lugdunensis came to 200 µM.

In the assay on Candida albicans, `CCCCCCCCCCCCCCCCOP(=O)([O-])OCC[N+](C)(C)CCCCCC` gave an MFC of 77.4 µM (≈ 37 µg/mL). Also, the MTC in the assay on Acanthamoeba lugdunensis is >400 µM.

Take `CCCCCCCCCCCC[N+](C)(C)CCOP(=O)([O-])OCCCCCCCCCC`: the MFC against Candida albicans was 19.3 µM (≈ 9.22 µg/mL). Further, the IC50 with HeLa turned out to be 118 µM; in the assay with HFL1 it was 43.8 µM. Further, in the assay with Acanthamoeba lugdunensis, the MTC was >400 µM.

In turn, `CCCCCCCCCCCCCCCCCCOP(=O)([O-])OCC[N+](C)(C)CCCC` registered an MFC against Candida albicans of 19.3 µM (≈ 9.22 µg/mL). The IC50 in the assay on HeLa is 161 µM; in the assay on HFL1, 113 µM. Moreover, the MTC in the assay with Acanthamoeba lugdunensis is >400 µM.

For `CCCCCCCCCCCC[N+](C)(C)CCCCCCCCCCOP(=O)([O-])OCCCCCCCCCC`, the MFC in the assay on Candida albicans worked out at 8100 µM (≈ 4780 µg/mL). Also, the MTC in the assay with Acanthamoeba lugdunensis was >400 µM.

The compound `CCCCCCCCCCCCCCCCCC[N+](C)(C)CCOP(=O)([O-])OCCCC` showed an MFC against Candida albicans of 9.7 µM (≈ 4.63 µg/mL). The MTC with Acanthamoeba lugdunensis was >400 µM.

Compound `CCCCCCCCCCCCCCCCOP(=O)([O-])OCC[N+](C)(C)C` [MILTEFOSINE] gave an MFC against Candida albicans of 4 µM (≈ 1.63 µg/mL). Also, the IC50 in the assay on HeLa came to 129 µM; in the assay with HFL1 it was 203 µM. This compound also returned an MTC with Acanthamoeba lugdunensis of 400 µM.

A word on the MFC: it is the lowest tested concentration that kills the fungus rather than only halting it. Broadly, the IC50 is the concentration needed to halve the response being measured.

For the origin of these results see ChEMBL document CHEMBL1156093, “Synthesis and biological activity of dialkylphosphocholines” (Bioorg Med Chem Lett, 2009).
